From patent US8173657B2, “Imidazoquinoxaline compounds as immunomodulators” (Novartis AG, priority 2006, dated 2012)
pEC50: −log10 of the molar value.

Assays:
Type in all cases: cell-based
TNF-α = experiment: Compound stimulation and multi-cytokine measurement (TNF-α production); settings: cytokine induction; FIG. 2: human PBMC TNF-α production; read-out: EC50 value with respect to agonism of TNF-α
Experimental: Human blood from one or multiple human donors were collected into the BD Vacutainer™ CPT tube with sodium citrate (BD, Franklin Lakes, N.J.), and spun for 20 minutes at 1600 g. After centrifugation, mononuclear cells in the top layer in the tubes were collected and then washed three times with PBS buffer. The washed cells were then reconstituted at a required cell concentration in complete RPMI containing 10% FBS plus 100 units/ml penicillin and 100 ug/ml streptomycin.
Human PBMC (hPBMC) (at 1 million cells/ml) or mouse spleen cells (at 5 million cells/ml) or human monocytic THP-1 cells (at 1 million cells/ml) were mixed with tested compounds such as imidazoquinoxalines at titrated compound concentrations in the complete RPMI medium. After the cell cultures were incubated for 24 hours at 37° C., 5% CO2, the culture supernatant was collected and assayed for the secreted cytokines in the presence of the compounds. […]
Due to the agonist nature of the compounds tested, compound ranking is based on potency in cell-based screens for cytokine induction. Briefly, the EC50 of each compound for a given cytokine is calculated relative to a reference composition (i.e. LPS or other potent immune stimulator). […] Rank-scoring of SMIP potency is calculated by dividing the maximum concentration of cytokine produced by the relative EC50 established for each compound indicated.

IL-6 = experiment: Compound stimulation and multi-cytokine measurement (IL-6 production); settings: cytokine induction; cell type not stated at the result; read-out: EC50 value with respect to agonism of IL-6
Experimental: Human PBMC (hPBMC) (at 1 million cells/ml) or mouse spleen cells (at 5 million cells/ml) or human monocytic THP-1 cells (at 1 million cells/ml) were mixed with tested compounds such as imidazoquinoxalines at titrated compound concentrations in the complete RPMI medium. After the cell cultures were incubated for 24 hours at 37° C., 5% CO2, the culture supernatant was collected and assayed for the secreted cytokines in the presence of the compounds. Human or mouse Beadlyte multi-cytokine flex kits (Upstate, Lake Placid, N.Y.) were used to measure the amount of the following cytokines: TNF-α and IL-6 according to the manufacturers instructions.
Due to the agonist nature of the compounds tested, compound ranking is based on potency in cell-based screens for cytokine induction. Briefly, the EC50 of each compound for a given cytokine is calculated relative to a reference composition (i.e. LPS or other potent immune stimulator). This value is then used as the divisor of the maximum level of cytokine produced (pg/ml) in the assay. Five parameter curve fitting of cytokine dose response curves to different SMIPs for the indicated cell populations is used to calculate EC50. Rank-scoring of SMIP potency is calculated by dividing the maximum concentration of cytokine produced by the relative EC50 established for each compound indicated.

human TLR7 = biological target: T1, human TLR7 (Homo sapiens, UniProt Q9NYK1); experiment: TLR signaling, NF-kB luciferase reporter in transfected HEK293 cells; settings: HEK293 transfected with hTLR7, NF-kB luciferase; FIG. 1
T1 construct: host or cells: HEK293 cells (ATCC, CRL-1573)
T1 sequence (Q9NYK1 27-1049): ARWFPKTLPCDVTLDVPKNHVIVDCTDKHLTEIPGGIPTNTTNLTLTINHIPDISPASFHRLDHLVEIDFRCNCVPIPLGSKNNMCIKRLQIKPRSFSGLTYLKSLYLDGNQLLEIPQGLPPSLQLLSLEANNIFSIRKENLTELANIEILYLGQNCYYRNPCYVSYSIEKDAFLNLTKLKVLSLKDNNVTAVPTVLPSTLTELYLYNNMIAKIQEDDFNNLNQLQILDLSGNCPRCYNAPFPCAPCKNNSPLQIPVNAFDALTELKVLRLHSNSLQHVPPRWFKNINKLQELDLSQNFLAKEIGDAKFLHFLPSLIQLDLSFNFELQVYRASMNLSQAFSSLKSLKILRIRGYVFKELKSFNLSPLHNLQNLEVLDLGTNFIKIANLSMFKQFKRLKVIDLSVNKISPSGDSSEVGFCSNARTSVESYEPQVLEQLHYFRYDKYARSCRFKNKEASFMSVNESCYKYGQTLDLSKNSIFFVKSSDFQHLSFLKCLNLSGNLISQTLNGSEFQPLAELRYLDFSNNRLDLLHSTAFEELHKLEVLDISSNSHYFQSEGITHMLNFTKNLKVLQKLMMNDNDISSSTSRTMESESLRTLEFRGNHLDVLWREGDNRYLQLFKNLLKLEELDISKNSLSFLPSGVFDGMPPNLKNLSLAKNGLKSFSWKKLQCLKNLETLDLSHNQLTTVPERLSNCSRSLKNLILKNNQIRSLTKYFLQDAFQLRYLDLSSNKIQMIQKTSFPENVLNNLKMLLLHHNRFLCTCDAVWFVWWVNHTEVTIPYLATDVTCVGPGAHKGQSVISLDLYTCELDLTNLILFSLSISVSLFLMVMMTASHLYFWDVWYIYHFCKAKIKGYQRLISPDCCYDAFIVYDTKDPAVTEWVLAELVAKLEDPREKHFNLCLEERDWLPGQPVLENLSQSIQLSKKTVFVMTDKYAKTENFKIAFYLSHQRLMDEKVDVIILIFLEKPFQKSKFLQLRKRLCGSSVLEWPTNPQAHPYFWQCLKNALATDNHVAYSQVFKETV
Experimental: (§1) HEK293 cells (ATCC, CRL-1573) are seeded in a T75 flask at 3×10^6 in 20 ml of DMEM supplemented with 0.1 mM nonessential amino acid, 1 mM sodium pyruvate, 2 mM L-glutamine, penicillin-streptomycin, and 10% FCS. After overnight culturing, the cells are transfected with 1) pNFkB-TA-luciferase reporter (0.4 ug) (BD clontech, Palo Alto, Calif.), and with 2) with pGL4.74 (0.01 ug) that carries a TK promoter, not responsive to NF-kB stimulation, and carries a Renilla luciferase gene, used as an internal control (Promega, Wis.), and 3), separately with a following TLR construct (10 ug): human TLR (hTLR) 7, hTLR8, mouse TLR7 (mTLR7) puno constructs (Invivogene, CA), using Fugene 6 transfection reagent (Roche). The transfected cells after 24 hours transfection are collected and seeded in a 96-well and flat-bottom plate (1×10^4 cell/well) plate, and stimulated with the test compounds at the following concentrations: 30, 10, 3, 1, 0.3, 0.1, 0.03 uM. After overnight compound stimulation, the cells are assayed for expression of fly and renilla luciferases using Dual-Luciferase Reporter Assay System (Promega, WI). NF-kb activation is directly proportional to relative fly luciferase units, which is measured against the internal control renilla luciferase units.

human TLR8 = biological target: T2, human TLR8 (Homo sapiens, UniProt Q9NR97); experiment: as above; settings: HEK293 transfected with hTLR8, NF-kB luciferase; FIG. 1
T2 construct: host or cells: HEK293 cells (ATCC, CRL-1573)
T2 sequence (Q9NR97 27-1041): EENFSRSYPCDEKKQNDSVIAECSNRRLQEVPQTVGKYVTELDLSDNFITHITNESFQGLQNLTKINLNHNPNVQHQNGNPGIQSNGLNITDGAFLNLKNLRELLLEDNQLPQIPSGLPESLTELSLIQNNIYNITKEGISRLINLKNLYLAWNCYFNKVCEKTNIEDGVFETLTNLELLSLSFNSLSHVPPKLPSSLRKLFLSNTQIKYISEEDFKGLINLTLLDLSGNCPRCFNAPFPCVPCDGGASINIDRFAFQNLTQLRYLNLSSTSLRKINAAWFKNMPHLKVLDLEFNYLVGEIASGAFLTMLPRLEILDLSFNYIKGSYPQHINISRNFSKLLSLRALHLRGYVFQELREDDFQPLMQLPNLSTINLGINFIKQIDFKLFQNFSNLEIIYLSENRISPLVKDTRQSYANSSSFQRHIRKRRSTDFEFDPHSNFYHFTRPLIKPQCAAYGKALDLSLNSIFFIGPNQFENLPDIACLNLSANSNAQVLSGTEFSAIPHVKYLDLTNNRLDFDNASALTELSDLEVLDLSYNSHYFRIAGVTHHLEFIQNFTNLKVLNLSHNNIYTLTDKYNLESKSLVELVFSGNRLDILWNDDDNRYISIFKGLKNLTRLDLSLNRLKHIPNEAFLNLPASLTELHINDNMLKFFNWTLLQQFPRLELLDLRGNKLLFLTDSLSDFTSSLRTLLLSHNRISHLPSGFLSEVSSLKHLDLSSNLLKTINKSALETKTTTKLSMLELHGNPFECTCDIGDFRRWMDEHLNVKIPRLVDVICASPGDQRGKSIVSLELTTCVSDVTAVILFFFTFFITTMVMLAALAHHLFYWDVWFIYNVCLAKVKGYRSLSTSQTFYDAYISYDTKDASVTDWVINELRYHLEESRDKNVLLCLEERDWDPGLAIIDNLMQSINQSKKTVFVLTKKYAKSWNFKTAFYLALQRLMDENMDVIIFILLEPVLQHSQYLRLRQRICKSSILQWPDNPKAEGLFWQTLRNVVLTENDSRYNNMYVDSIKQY
Experimental: as §1

mouse TLR7 = biological target: T3, mouse TLR7 (Mus musculus, UniProt P58681); experiment: as above; settings: HEK293 transfected with mTLR7, NF-kB luciferase; FIG. 1
T3 construct: host or cells: HEK293 cells (ATCC, CRL-1573)
T3 sequence (P58681 27-1050): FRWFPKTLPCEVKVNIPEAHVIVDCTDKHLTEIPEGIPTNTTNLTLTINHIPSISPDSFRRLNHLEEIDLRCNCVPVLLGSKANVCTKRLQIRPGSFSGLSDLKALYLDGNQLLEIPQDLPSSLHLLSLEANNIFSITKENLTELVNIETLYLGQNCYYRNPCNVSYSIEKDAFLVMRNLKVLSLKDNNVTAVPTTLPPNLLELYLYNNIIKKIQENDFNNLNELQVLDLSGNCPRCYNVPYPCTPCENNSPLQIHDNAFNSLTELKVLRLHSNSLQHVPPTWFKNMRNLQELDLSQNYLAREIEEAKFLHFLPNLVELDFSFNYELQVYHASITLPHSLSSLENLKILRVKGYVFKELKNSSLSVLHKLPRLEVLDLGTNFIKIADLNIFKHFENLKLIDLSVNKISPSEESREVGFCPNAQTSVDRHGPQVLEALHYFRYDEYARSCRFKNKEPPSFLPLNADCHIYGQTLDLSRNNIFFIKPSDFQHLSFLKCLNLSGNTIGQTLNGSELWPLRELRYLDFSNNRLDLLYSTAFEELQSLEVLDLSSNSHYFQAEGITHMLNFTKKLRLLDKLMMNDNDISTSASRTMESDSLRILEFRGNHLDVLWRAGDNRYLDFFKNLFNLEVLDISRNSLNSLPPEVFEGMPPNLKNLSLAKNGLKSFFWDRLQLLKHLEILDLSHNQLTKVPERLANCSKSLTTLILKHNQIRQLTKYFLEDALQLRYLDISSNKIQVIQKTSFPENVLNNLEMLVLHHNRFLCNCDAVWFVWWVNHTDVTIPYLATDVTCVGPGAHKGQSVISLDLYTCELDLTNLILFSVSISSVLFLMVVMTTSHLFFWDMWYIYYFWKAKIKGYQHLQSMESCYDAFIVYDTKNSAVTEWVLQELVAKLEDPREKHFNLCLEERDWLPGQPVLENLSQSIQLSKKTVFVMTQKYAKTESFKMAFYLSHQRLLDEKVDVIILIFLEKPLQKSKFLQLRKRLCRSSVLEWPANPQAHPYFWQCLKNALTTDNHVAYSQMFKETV
Experimental: as §1

SMILES	pEC50 (TNF-α)	pEC50 (IL-6)	stimulation of human TLR7 (human TLR7)	stimulatory activity with human TLR8 (human TLR8)	reactivity for mouse TLR7 (mouse TLR7)
CC(C)Cc1cn2c(n1)c(N)nc1ccccc12 [Example 3, 2-isobutylimidazo[1,2-a]quinoxalin-4-amine]	> 4.82	> 4.82	activity for stimulation	stimulatory activity	slightly more reactivity for mouse TLR7 than did the compound of Example 4
CC(C)Cc1nc2c(N)nc3ccccc3n2c1CC(C)(C)O [Example 4, 1-(4-amino-2-isobutylimidazo[1,2-a]quinoxalin-1-yl)-2-methylpropan-2-ol]	> 4.82	> 4.82	–	little or no reactivity	–
